Experimental data taken from PubChem BioAssay AID1259411 (Chemical Carcinogenesis Research Information System (CCRIS), 2018).
The source made the active and inactive calls. How the calls were made is not given here.

System: rodent carcinogenicity bioassays, tumor incidence
Assay: CCRIS carcinogenicity studies
How it was run: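 Archive of carcinogenicity, mutagenicity, tumor promotion and tumor inhibition results drawn from journals, NCI reports and other sources, expert-reviewed; covers 1985-2011 and is no longer updated.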

## Cc1ccc([N+](=O)[O-])cc1
Species: MOUSE, Strain/Sex: B6C3F1/FEMALE, Route: ORAL, Dose: 0, 1250, 2500, 5000 PPM FOR 105-106 WK (STUDY DURATION: 105-106 WK), Dose: 0, 1250, 2500, 5000 PPM FOR 105-106 WK (STUDY DURATION: 105-106 WK)
  carcinogen call: inactive; negative
Species: MOUSE, Strain/Sex: B6C3F1/MALE, Route: ORAL, Dose: 0, 1250, 2500, 5000 PPM FOR 105-106 WK (STUDY DURATION: 105-106 WK), Dose: 0, 1250, 2500, 5000 PPM FOR 105-106 WK (STUDY DURATION: 105-106 WK), Tumor Site: Type of Lesion: LUNG: ALVEOLAR/BRONCHIOLAR ADENOMA OR CARCINOMA
  carcinogen call: equivocal
Species: RAT, Strain/Sex: F344/FEMALE, Route: ORAL, Dose: 0, 1250, 2500, 5000 PPM FOR 105-106 WK (STUDY DURATION: 105-106 WK), Dose: 0, 1250, 2500, 5000 PPM FOR 105-106 WK (STUDY DURATION: 105-106 WK), Tumor Site: Type of Lesion: CLITORAL GLAND: ADENOMA OR CARCINOMA
  carcinogen call: active; positive
Species: RAT, Strain/Sex: F344/MALE, Route: ORAL, Dose: 0, 1250, 2500, 5000 PPM FOR 105-106 WK (STUDY DURATION: 105-106 WK), Dose: 0, 1250, 2500, 5000 PPM FOR 105-106 WK (STUDY DURATION: 105-106 WK), Tumor Site: Type of Lesion: SKIN (SUBCUTANEOUS):FIBROMA, FIBROMA OR FIBROSARCOMA
  carcinogen call: equivocal

## COc1ccc(-c2ccccc2)cc1NNC(=O)OC(C)C
Species: Mouse, Strain/Sex: B6C3F1/Female (50/group), Route: Oral, Dose: 0, 10, 100, 175 ppm in diet for 78 wks, Dose: 0, 10, 100, 175 ppm in diet for 78 wks
  carcinogen call: inactive; negative; purity 92.5%
Species: Rat, Strain/Sex: Sprague-Dawley/Female (60/group), Route: Oral, Dose: 0, 20, 80, 160 ppm in diet for 104 wks, Dose: 0, 20, 80, 160 ppm in diet for 104 wks
  carcinogen call: inactive; negative; purity 92.5%
Species: Rat, Strain/Sex: Sprague-Dawley/Male (60/group), Route: Oral, Dose: 0, 20, 80, 200 ppm in diet for 104 wks, Dose: 0, 20, 80, 200 ppm in diet for 104 wks
  carcinogen call: inactive; negative; purity 92.5%

## O=[N+]([O-])c1ccc2ccc3cccc4c3c2c1C1OC41 (stereo not given)
Species: MOUSE, Strain/Sex: B6C3F1/FEMALE, Route: INTRAPERITONEAL, Dose: 0, 7 NMOL (TOTAL DOSE), 1/7, 2/7 AND 4/7 OF THE TOTAL DOSE ADMINISTERED WITHIN 24 HR OF BIRTH AND AT 8 AND 15 D OF AGE
  carcinogen call: inactive; negative
Species: MOUSE, Strain/Sex: B6C3F1/MALE, Route: INTRAPERITONEAL, Dose: 0, 7 NMOL (TOTAL DOSE), 1/7, 2/7 AND 4/7 OF THE TOTAL DOSE ADMINISTERED WITHIN 24 HR OF BIRTH AND AT 8 AND 15 D OF AGE
  carcinogen call: inactive; negative

## [O-][Br+2]([O-])O
Species: Hamster, Strain/Sex: Syrian golden/Male (20/group), Route: Oral, Dose: 0, 125, 250, 500, 2000 ppm in drinking water for 89 wk, study duration 89 wk, Dose: 0, 125, 250, 500, 2000 ppm in drinking water for 89 wk, study duration 89 wk, Tumor Site: Type of Lesion: Kidney: Renal adenoma (0/20, 0/20, 1/20, 2/20, 4/20)
  carcinogen call: active; positive
Species: Mouse, Strain/Sex: B6C3F1, BDF1, and CDF1/Male (27/experimental group, 15/control group), Route: Oral, Dose: 0, 750 ppm in drinking water for 88 wk, study duration 88 wk, Tumor Site: Type of Lesion: Kidney: Renal adenoma and carcinoma - B6C3F1: 0/15 (controls), 3/26 (750 ppm), BDF1: 0/15 (controls),1/27 (750 ppm), CDF, Tumor Site: Type of Lesion: Kidney: Renal adenoma and carcinoma - B6C3F1: 0/15 (controls), 3/26 (750 ppm), BDF1: 0/15 (controls),1/27 (750 ppm), CDF
  carcinogen call: active; positive
Species: Mouse, Strain/Sex: B6C3F1/Female (25/ group), Route: Oral, Dose: 0, 500, 1000 ppm in drinking water for 78 wk, followed by tap water for 26 wk, study duration 104 wk, Dose: 0, 500, 1000 ppm in drinking water for 78 wk, followed by tap water for 26 wk, study duration 104 wk
  carcinogen call: inactive; negative
Species: Mouse, Strain/Sex: Ogg1 wild type/Female (15/15)/(13/15), Route: Oral, Dose: 2 g/l in drinking water for 18 wk followed by 1 g/l in drinking water for 11 wk (Study duration: 52 wk)
  carcinogen call: inactive; negative (kidney, liver, lung, spleen, thymus, stomach, and intestine examined);
Species: Mouse, Strain/Sex: Ogg1 wild type/Male (13/15)/(15/15), Route: Oral, Dose: 2 g/l in drinking water for 18 wk followed by 1 g/l in drinking water for 11 wk (Study duration: 52 wk)
  carcinogen call: inactive; negative (kidney, liver, lung, spleen, thymus, stomach and intestine examined);
Species: RAT, Strain/Sex: F344/FEMALE, Route: ORAL, Dose: 250, 500 PPM IN DRINKING WATER FOR 110 WK, Tumor Site: Type of Lesion: KIDNEY: RENAL CELL ADENOMA, RENAL CELL ADENOCARCINOMA
  carcinogen call: active; positive
Species: RAT, Strain/Sex: F344/MALE, Route: ORAL, Dose: 0, 0.02, 0.1, 0.2, 0.4 G/L IN DRINKING WATER FOR 52, 78, OR 100 WK (STUDY DURATION: 100 WK), Dose: 0, 0.02, 0.1, 0.2, 0.4 G/L IN DRINKING WATER FOR 52, 78, OR 100 WK (STUDY DURATION: 100 WK), Tumor Site: Type of Lesion: TESTICLE: MESOTHELIOMA, KIDNEY: RENAL CELL TUMOR, THYROID: TUMOR, Tumor Site: Type of Lesion: TESTICLE: MESOTHELIOMA, KIDNEY: RENAL CELL TUMOR, THYROID: TUMOR
  carcinogen call: active; positive
Species: RAT, Strain/Sex: F344/MALE, Route: ORAL, Dose: 250, 500 PPM IN DRINKING WATER (HIGH DOSE REDUCED TO 400 PPM AT WK 60), Tumor Site: Type of Lesion: KIDNEY: RENAL CELL ADENOMA, RENAL CELL ADENOCARCINOMA, PERITONEAL CAVITY: MESOTHELIOMA
  carcinogen call: active; positive
Species: Rat, Strain/Sex: F344 (20-41/group), Route: Oral, Dose: 0, 300, 600 mg/kg single intragastric administration, study duration 87 wk, Dose: 0, 300, 600 mg/kg single intragastric administration, study duration 87 wk, Tumor Site: Type of Lesion: Kidney: Renal adenoma and carcinoma (0/20, 0/20, 4/41)
  carcinogen call: active; positive
Species: Rat, Strain/Sex: F344/Male (14-20/group), Route: Oral, Dose: 500 ppm in drinking water for 13, 26, 39, and 52 wk followed by drinking water for a study duration of 104 wk, Tumor Site: Type of Lesion: Kidney: Adenoma (10/20, 9/19,13/19, 8/14), Adenocarcinoma (2/20, 1/19, 6/19, 3/14). Peritoneum: Mesothelioma (6/20, 8/19
  carcinogen call: active; positive
Species: Rat, Strain/Sex: F344/Male (20-24/group), Route: Oral, Dose: 0, 15, 30, 60, 125, 250, 500 ppm in drinking water for 104 wk, Dose: 0, 15, 30, 60, 125, 250, 500 ppm in drinking water for 104 wk, Tumor Site: Type of Lesion: Kidney: Renal adenoma (0/19, 0/19, 0/20, 1/24, 5/24, 5/20, 6/20) and adenocarcinoma (0/19, 0/19, 0/20, 0/24, 0/24, 0/20
  carcinogen call: active; positive
Species: Rat, Strain/Sex: Fischer 344/Female (50/group), Route: Oral, Dose: 0, 10, 30, 50 mg/kg/day by gavage once daily for 104 wk, Dose: 0, 10, 30, 50 mg/kg/day by gavage once daily for 104 wk
  carcinogen call: inactive; negative
Species: Rat, Strain/Sex: Fischer 344/Male (50/group), Route: Oral, Dose: 0, 10, 30, 50 mg/kg/day by gavage once daily for 104 wk, Dose: 0, 10, 30, 50 mg/kg/day by gavage once daily for 104 wk
  carcinogen call: inactive; negative

## CCCc1cc(=O)[nH]c(=S)[nH]1
Species: HAMSTER, Route: ORAL, Tumor Site: Type of Lesion: THYROID GLAND
  carcinogen call: active; positive
Species: MOUSE, Route: ORAL, Tumor Site: Type of Lesion: PITUITARY GLAND, THYROID GLAND
  carcinogen call: active; positive
Species: RAT, Route: ORAL, Tumor Site: Type of Lesion: THYROID GLAND
  carcinogen call: active; positive

## NNc1ccc(C(=O)O)cc1
Species: MOUSE, Strain/Sex: STRAIN-A/FEMALE, Route: ORAL, Dose: 0, 1000 PPM IN DRINKING WATER FOR 26 WK (STUDY DURATION: 26 WK)
  carcinogen call: inactive; negative

## CC(=NC#N)N(C)Cc1ccc(Cl)nc1
Species: Mouse, Strain/Sex: Crl:CD-1 (ICR)BR/Female, Route: Oral, Dose: 0, 130, 400, 1200 ppm (0; 25; 76; 215 mg/kg/day) in feed for 18 mo, Dose: 0, 130, 400, 1200 ppm (0; 25; 76; 215 mg/kg/day) in feed for 18 mo
  carcinogen call: inactive; negative
Species: Mouse, Strain/Sex: Crl:CD-1 (ICR)BR/Male, Route: Oral, Dose: 0, 130, 400, 1200 ppm (0; 20; 66; 186 mg/kg/day) in feed for 18 mo, Dose: 0, 130, 400, 1200 ppm (0; 20; 66; 186 mg/kg/day) in feed for 18 mo
  carcinogen call: inactive; negative
Species: Rat, Strain/Sex: Crl:CD BR/Female, Route: Oral, Dose: 0, 160, 400, 1000 ppm (0; 8.8; 22.6; 60.0 mg/kg/day) in feed for 2 yr, Dose: 0, 160, 400, 1000 ppm (0; 8.8; 22.6; 60.0 mg/kg/day) in feed for 2 yr
  carcinogen call: inactive; negative
Species: Rat, Strain/Sex: Crl:CD BR/Male, Route: Oral, Dose: 0, 160, 400, 1000 ppm (0; 7.1; 17.5; 46.4 mg/kg/day) in feed for 2 yr, Dose: 0, 160, 400, 1000 ppm (0; 7.1; 17.5; 46.4 mg/kg/day) in feed for 2 yr
  carcinogen call: inactive; negative
